From the NIST ThermoML archive (doi:10.1021/je9010129)

Assay: refractive index (Na D-line) (dimensionless); mn = molality of the nth substance listed, in mol/kg
Settings: 101 kPa, Liquid, Standard Abbe refractometry

O=S(=O)([O-])[O-].[K+].[K+] [potassium sulfate] + O
refractive index
Settings | 288.15 K | 298.15 K | 308.15 K | 318.15 K
m1 = 0.0456 | 1.33447 | 1.33359 | 1.33228 | 1.33072
m1 = 0.1387 | 1.33636 | 1.33552 | 1.33411 | 1.33251
m1 = 0.2502 | 1.33866 | 1.33771 | 1.33625 | 1.33466
m1 = 0.3409 | 1.34035 | 1.33945 | 1.33786 | 1.33626
m1 = 0.4174 | 1.34183 | 1.34071 | 1.33927 | 1.33763
m1 = 0.503 | 1.3433 | 1.34227 | 1.34077 | 1.33906
m1 = 0.5093 | 1.34341 | 1.3423 | 1.34084 | 1.3392
m1 = 0.5703 | 1.34451 | 1.34337 | 1.34186 | 1.34022
m1 = 0.6509 | – | 1.34476 | 1.34324 | 1.34151
m1 = 0.7435 | – | – | 1.34478 | 1.34301
m1 = 0.8106 | – | – | – | 1.34404
m1 = 0.8605 | – | – | – | 1.34488
m1 = 0.9049 | – | – | – | 1.34557

O [water] + O=S(=O)([O-])[O-].[K+].[K+]
m2 = 0
Settings | refractive index
288.15 K | 1.33339
298.15 K | 1.33248
308.15 K | 1.33128
318.15 K | 1.32979

N.N.O=S(=O)(O)O [ammonium sulfate] + O
refractive index
Settings | 288.15 K | 298.15 K | 308.15 K | 318.15 K
m1 = 0.2725 | 1.33934 | 1.33813 | 1.33696 | 1.33544
m1 = 0.3995 | 1.34174 | 1.3408 | 1.33941 | 1.33806
m1 = 0.4876 | 1.34348 | 1.34227 | 1.34098 | 1.33956
m1 = 0.8025 | 1.34905 | 1.34798 | 1.3467 | 1.34521
m1 = 1.198 | 1.35554 | 1.35434 | 1.353 | 1.35156
m1 = 1.604 | 1.3614 | 1.36025 | 1.35888 | 1.3574
m1 = 1.992 | 1.36659 | 1.36535 | 1.36402 | 1.36252
m1 = 2.381 | 1.37134 | 1.37008 | 1.36878 | 1.36733
m1 = 2.801 | 1.37588 | 1.37472 | 1.37338 | 1.37211
m1 = 3.2 | 1.38006 | 1.37873 | 1.37738 | 1.37611
m1 = 3.619 | 1.38383 | 1.38259 | 1.38126 | 1.38009
m1 = 3.997 | 1.38708 | 1.38596 | 1.38446 | 1.38325
m1 = 4.396 | 1.39018 | 1.38897 | 1.3876 | 1.38647
m1 = 4.763 | 1.39286 | 1.3917 | 1.39031 | 1.38922
m1 = 5.181 | 1.3957 | 1.39451 | 1.3932 | 1.39197
m1 = 5.6 | 1.39836 | 1.39715 | 1.39584 | 1.39461
m1 = 5.876 | – | – | 1.3975 | 1.39618
m1 = 6.328 | – | – | – | 1.3983

O [water] + N.N.O=S(=O)(O)O
m2 = 0
Settings | refractive index
288.15 K | 1.33339
298.15 K | 1.33248
308.15 K | 1.33128
318.15 K | 1.32979

O=S(=O)([O-])[O-].[Na+].[Na+] [sodium sulfate] + O
refractive index
Settings | 288.15 K | 298.15 K | 308.15 K | 318.15 K
m1 = 0.1002 | 1.33566 | 1.33473 | 1.33342 | 1.33185
m1 = 0.1938 | 1.33757 | 1.33653 | 1.33518 | 1.33378
m1 = 0.477 | 1.34311 | 1.34187 | 1.34052 | 1.33896
m1 = 0.7055 | 1.34719 | 1.34585 | 1.34434 | 1.34278
m1 = 0.8578 | 1.34983 | 1.34855 | 1.34695 | 1.34531
m1 = 0.9866 | – | 1.35058 | 1.34904 | 1.34742
m1 = 1.206 | – | 1.35377 | 1.3522 | 1.35057
m1 = 1.59 | – | 1.35915 | 1.35746 | 1.35598
m1 = 1.727 | – | 1.36096 | 1.35931 | 1.35778
m1 = 1.992 | – | – | 1.36271 | 1.36102
m1 = 2.237 | – | – | 1.36573 | 1.36396
m1 = 2.532 | – | – | 1.36884 | 1.36711
m1 = 2.681 | – | – | 1.37046 | 1.36857
m1 = 2.805 | – | – | 1.37172 | 1.36992
m1 = 3.053 | – | – | 1.37411 | 1.37246
m1 = 3.219 | – | – | 1.37569 | 1.37386
m1 = 3.305 | – | – | 1.37649 | 1.3747
m1 = 3.423 | – | – | 1.37756 | –

O [water] + O=S(=O)([O-])[O-].[Na+].[Na+]
m2 = 0
Settings | refractive index
288.15 K | 1.33339
298.15 K | 1.33248
308.15 K | 1.33128
318.15 K | 1.32979
